Tests used:
C. albicans SC5314 = assay: Germ tube formation (GTF %) in vitro screening, GlcNAc-triggered differentiation assay; type: cell-based, Candida albicans
Procedure: Based on the results in FIG. 3, single cell suspensions of SC5314 was prepared as follows. Stock culture of C. albicans SC5314 was streaked onto YPD agar (YPDA) and incubated at 30° C. overnight. Single colonies were subcultured in YPD broth (YPDB) and incubated 30° C., 200 rpm overnight. Overnight culture in YPDB was subcultured in YPD broth again and incubated 30° C., 200 rpm 48 h. Cells were collected by centrifugation (4000 g 10 min) at 4° C., washed three times with sterile water, and then resuspended in sterile water a final concentration of 10^9 colony-forming unit/ml (cfu/ml). The suspension were stored at 4° C. at least 1 d, then subcultured into YPDB to a final concentration of 10^6 cfu/ml. After 48 h incubation, cell suspension was examined under the microscope for single cell percentage. When the single cell percentage exceeded 80%, cells were collected and washed three times with water, then resuspended in water to a final concentration of 10^9 cfu/ml, and stored at 4° C. for no more than a month.
Two approaches were taken to determine the percentage of cells with germ tubes formed (GTF %). One way was to count the total cells at the start of incubation, and count the ungerminated cells after incubation, then calculate the GTF % as (1—ungerminated cells/total cells at 0 h)*100. Another way was to store the samples at 15° C. for 20 h after incubation, then count the germinated cells and total cells after disaggregation, then calculated the GTF % as (germinated cells/total cells after storage)*100. […] Therefore, for practical purposes, the GTF % was determined by the first method, that is, GTF %=(1—ungerminated cells/total cells at 0 h)*100, for the in vitro screening discussed herein.
A screening medium, containing 11 mM imidazole buffer, 3 mM MgSO4, and 2.6 mM N-acetyl-D-glucosamine (GlcNAc) has been used to study the effect of farnesol analogs on the germ tube formation of C. albicans. Here, the germ tube formation of C. albicans in modified screening media was assessed with various concentrations of imidazole buffer (10 mM, 30 mM and 50 mM) and MgSO4 (0.5 mM, 1.5 mM and 3 mM). […] It took 2 h to 3 h for the GTF % to reach above 80%. For practical purposes, the screening medium, containing 11 mM imidazole buffer, 0.5 mM MgSO4, and 2.6 mM N-acetyl-D-glucosamine (GlcNAc) was adopted for in vitro screening the quorum sensing inhibitory effect of farnesol compounds.
The in vitro screening assay was based on the N-acetylglucosamine (GlcNAc)-triggered differentiation assay (Hornby et al., “Quorum sensing in the dimorphic fungus Candida albicans is mediated by farnesol;” Applied and Environmental Microbiology 67:2982-2992; 2001), which included 0.56 ml of 0.1 M imidazole buffer (pH 6.5), 0.15 ml of 0.1 M MgSO4, 0.13 ml of 0.1 M GlcNAc, and 4.16 ml of sterilized water. Bioassays of quorum sensing candidates were conducted by the addition of the chemical, as a solution in 100% methanol, to the bioassay media; the final concentration of methanol was no greater than 1%.

[1] = system: C. elegans glp4; sek1 infected with C. albicans SC5314; assay: Death rate of C. elegans glp4; sek1 infected with C. albicans SC5314, 96 well plates; type: in vivo, Caenorhabditis elegans; conditions: for % change in the death rate compared to the control: 25° C.
Procedure: Caenorhabditis elegans glp4; sek1 was used as the model for […]. Breger et al. (Breger, J.; Fuchs, B. B.; Aperis, G.; Moy, T. I., Ausubel, F. M., Mylonakis, E.; “Antifungal chemical compounds identified using a C. elegans pathogenicity assay.” PLoS Pathogens 3: 168-178; 2007) reported that the glp-4 mutation rendered the strain incapable of producing progeny at 25° C., and the sek-1 mutation enhanced the sensitivity of the strain to various pathogens, thereby decreasing the time for screening assays. It was observed that no progenies was produced by the Caenorhabditis elegans glp4; sek1 strain after 3 d incubation at 25° C.
The synchronization of C. elegans was achieved by collecting the eggs and arresting the larvae at L1 stage. The commonly used bleach treatment was able to release the eggs from the adult worms. However, it was observed that the released eggs were not always able to hatch after treated with sodium hypochlorite (0.2, 0.3, 0.4, 0.5, 0.7 or 1%) for 3-5 min. A modified egg laying method was developed to synchronize worms to L1 stage. In brief, stock cultures of C. elegans glp4; sek1, maintained on Nematode Growth Media plates (NGM plates), were subcultured onto NGM plates with OP 50 and incubated at 15° C. for 6-9 days. Then a chunk (1 cm^2) of agar with gravid adults was subcultured again onto NGM plates with OP50 and incubated at 15° C. After incubation of 3-7 days, the worms were gently washed off with 3 ml of M 9 buffer on the rotating platform (100 rpm). The plate was tilted on its lid to allow the liquid and worms drain to one side of the plate. The liquid and worms were aspirated off. The plate was washed again with M9 buffer three more times to remove OP50 as much as possible. After washing, the plate was incubated at 25° C. overnight to let the eggs hatch overnight. Since there was no OP50, the larvae were arrested at the L1 stage. The live C. elegans glp4; sek1 was quite curvy; whereas the dead C. elegans glp4; sek1 tended to be straight, and in most cases the dead worms with the hyphae of C. albicans pieced through the body. The curvy shape and movement after shaking were used as the criteria for live.
The In vitro screening assay, based on the method of Tampakakis et al (Tampakakis, E.; Okoli, I.; Mylonakis, E.; “A C. elegans-based, whole animal, in vivo screen for the identification of antifungal compounds.” Nature Protocols 3:1925-1931; 2008), is described as follows:
L1 worms, which were prepared by the modified egg-laying method, were collected by centrifugation at 675 g for 30 s at room temperature, and the supernatant was removed. Worms were resuspended in M 9 buffer and inoculated on NGM agar plates with OP50, ˜1000 worms per plate. After 2-3 days incubation at 25° C., the worms were washed off with M 9 buffer for the […] assay.
The control were worms fed on OP50.

C. elegans glp4; sek1 = assay: Toxicity: death rate of C. elegans glp4; sek1 fed on E. coli OP50; conditions: for Death rate (%): 2 mM, worms fed on E. coli OP50, 25° C.; for toxicity to C. elegans fed on E. coli OP50 (in words): in vivo
Procedure: The toxicity of the selected compounds/products were tested using the C. elegans glp4; sek1 fed on E. coli OP50 (Table 5).
Stock cultures of C. albicans SC 5314 was subcultured into 3 ml of YPD broth and incubated at 30° C. Then the overnight culture in broth was spread onto YPD agar, and incubated at 30° C. The 24 h old lawn of SC5314 was used to feed worms for 2 h at 25° C. The control were worms fed on OP50.
The worms were washed off the YPD plates and washed twice with M9 buffer. The worms were resuspended in screening media, M9 buffer with 0.3% Tween 80. The worm suspension (50 μl) was dispensed into the wells of 96-well plates, 20-30 worms/well. Aliquots (50 μl) of compounds in screening media were added to wells, 5 wells each compound. The 96 well plates were incubated at 25° C. for up to 5 days. Live and dead worms were counted during incubation, and the death rates of worms were calculated.

[2] = 0.4 mM to 3 mM (the tested four concentrations)
[3] = 2.0 mM, 4 days, two replicates (* three)
[4] = 2.0 mM, 5 days, two replicates (* three)

| Compound | GTF % (mean ± SEM, n = 2) (C. albicans SC5314; 100 μM, * one replicate) | GTF % (mean ± SEM, n = 2) (C. albicans SC5314; 200 μM) [%] | effect on death rate of infected C. elegans (in words) [1, 2] | % change in the death rate compared to the control ([1]; 0.4 mM, 4 days, two replicates) [%] | % change in the death rate compared to the control ([1]; 0.4 mM, 5 days, two replicates) [%] | % change in the death rate compared to the control ([1]; 1.0 mM, 4 days, two replicates) [%] | % change in the death rate compared to the control ([1]; 1.0 mM, 5 days, two replicates) [%] | % change in the death rate compared to the control [1, 3] [%] | % change in the death rate compared to the control [1, 4] [%] | % change in the death rate compared to the control ([1]; 3.0 mM, 4 days, two replicates) [%] | % change in the death rate compared to the control ([1]; 3.0 mM, 5 days, two replicates) [%] | Death rate (%) (C. elegans glp4; sek1) | toxicity to C. elegans fed on E. coli OP50 (in words) (C. elegans glp4; sek1) | effect on death rate of infected C. elegans (in words) ([1]; key finding, no concentration stated) |
| --- | --- | --- | --- | --- | --- | --- | --- | --- | --- | --- | --- | --- | --- | --- |
| O=C(O)Cc1ccccc1O [2-hydroxy phenyl acetic acid] | 90.3* % | 71.3 ± 2.5 |  |  |  |  |  |  |  |  |  |  |  |  |
| OCCc1ccc(O)c(O)c1 [hydroxytyrosol] | 78.0* % | 84.9 ± 0.1 |  |  |  |  |  |  |  |  |  |  |  |  |
| CC(=O)OCC=C(C)CCC=C(C)CCC=C(C)C [farnesyl acetate, reference compound] | 51.9 ± 2.1% | 36.8 ± 0.8 | increased the death rate of the worm significantly | 10 ± 6 | 4 ± 3 | 27 ± 7 | 15 ± 7 | 21 ± 5 | 9 ± 2 | 24 ± 9 | 7 ± 10 | 12 | toxic to the worm |  |
| CC(C)=CCC/C(C)=C/CC/C(C)=C/COCCCCO [#5 synthesized analog] | 73.8 ± 4.8% | 53.6 ± 3.0 | did not have significant effect on the death of the worms | −3 ± 6 | −6 ± 3 | 2 ± 3 | 9 ± 1 | −8 ± 1 | 2 ± 2 | −4 ± 4 | 4 ± 1 | 4 |  |  |
| CC(C)=CCC/C(C)=C/CC/C(C)=C/COC(=O)CCC(=O)OCCCCO [#2 synthesized analog] | 71.2 ± 2.9% | 33.9 ± 0.6 | reduced the death rate significantly | −36 ± 4 | −38 ± 2 | −28 ± 5 | −29 ± 10 | −39 ± 11 | −39 ± 11 | −40 ± 0 | −40 ± 4 | 4 ± 0.6 |  | significantly reduced the death rate |
| CC(C)=CCC/C(C)=C/CC/C(C)=C/COC(=O)CCC(=O)OCCO [#4 synthesized analog] | 59.2 ± 4.8% | 31.1 ± 8.2 | did not have significant effect on the death of the worms | 8 ± 8 | 7 ± 1 | −3 ± 3 | −1 ± 4 | 4 ± 8 | 8 ± 11 | 7 ± 4 | 10 ± 5 | 2 |  |  |
| OC[C@H]1O[C@@H](OCCc2ccc(O)cc2)[C@H](O)[C@@H](O)[C@@H]1O [salidroside] | 93.2* % | 78.0 ± 5.9 |  |  |  |  |  |  |  |  |  |  |  |  |
| C=CC(C)(O)CC/C=C(\C)CCC=C(C)C (stereo not drawn) [trans-nerolidol, reference compound] | 92.4* % | 51.6 ± 1.8 | increased the death rate of the worm significantly | 11 ± 4 | 4 ± 5 | 3 ± 7 | −8 ± 5 | 25 ± 10 | 10 ± 2 | 7 ± 0 | 9 ± 9 | 23 | toxic to the worm |  |
| CC(C)=CCC/C(C)=C/CC/C(C)=C/COCCCO [#6 synthesized analog] | 75.1 ± 0.5% | 51.1 ± 3.2 |  |  |  |  |  |  |  |  |  |  |  |  |
| COc1cc(CCN)ccc1O [3-Methoxy-4-hydroxy-phenylethyl amine] | 95.7* % | 86.4 ± 3.3 |  |  |  |  |  |  |  |  |  |  |  |  |
| CC(C)=CCC/C(C)=C/CC/C(C)=C/CO[C@@H]1C(O)C(O)OC(CO)C1O (stereo partly drawn) [#8 synthesized analog] | 76.6 ± 0.3% | 66.3 ± 0.6 |  |  |  |  |  |  |  |  |  |  |  |  |
| OC=Cc1ccccc1 [β-phenylethenol] | 91.7* % | 84.5 ± 0.3 |  |  |  |  |  |  |  |  |  |  |  |  |
| O=C(O)Cc1ccc(O)cc1 [4-hydroxy phenyl acetic acid] | 93.1* % | 86.2 ± 1.8 |  |  |  |  |  |  |  |  |  |  |  |  |
| CC(C)=CCC/C(C)=C/CC/C(C)=C/COCCO [#7 synthesized analog] | 72.6 ± 1.7% | 58.8 ± 2.1 |  |  |  |  |  |  |  |  |  |  |  |  |

Reference: patent publication US11383003B2, “Water soluble farnesol analogs and their use” (Kimberly-Clark Worldwide, Inc., priority 2012, dated 2022)
